Experimental data reported in ChEMBL document CHEMBL1201862, “PubChem BioAssay data set” (2004).
Activity calls are given as the source filed them.

Tests used:
[1] = insulin promoter down-regulators in MIN6 cells, imaging, high-content screening, mouse beta cells (AID 1628); assay type: functional
[2] = cytotoxicity in MIN6 insulinoma cells, dose response, cytotoxicity control, cell-based, mouse insulinoma (AID 2122); assay type: functional;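 note: confirmatory high-throughput counterscreen run to flag cytotoxic compounds; mouse MIN-6 beta cells carrying an insulin promoter eGFP reporter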
[3] = system: INS1; assay: beta cell apoptosis inhibitors, cytokine rescue, dose response, luminescence, retest (AID 449756); assay type: functional, cell-based; settings: Rattus norvegicus;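 note: cell death triggered by IL-1 beta plus TNF-alpha plus IFN-gamma mixture; protective hits raise ATP signal compared with cytokine alone wells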
[4] = biological target: Delta-type opioid receptor (Homo sapiens, UniProt P41143); assay: Counterscreen for agonists of heterodimerization of the mu 1 (OPRM1) and delta 1 (OPRD1) opioid receptors: Luminescence-based cell-based high throughput dose response assay to identify agonists of OPRD1 homodimerization. [Related pubchem assays (depositor defined):AID504326, AID504355, AID504692, AID504904, AID504905]; assay type: functional
[5] = biological target: Mu-type opioid receptor (Homo sapiens, UniProt P35372); assay: Counterscreen for agonists of heterodimerization of the mu 1 (OPRM1) and delta 1 (OPRD1) opioid receptors: Luminescence-based cell-based high throughput dose response assay to identify agonists of OPRM1 homodimerization.; assay type: functional;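 note: U2OS cells expressing OPRM1 and beta-arrestin as split beta-galactosidase partners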
[6] = biological target: 5-hydroxytryptamine receptor 5A (Homo sapiens, UniProt P47898); assay: Counterscreen for agonists of OPRM1-OPRD1 heterodimerization: luminescence-based cell-based high throughput dose response assay to identify agonists of 5-hydroxytryptamine (serotonin) 5A receptor (HTR5A). [Related pubchem assays (depositor defined):AID504326, AID504355, AID504692, AID504904, AID504905]; assay type: functional
[7] = biological target: Trypsin (Sus scrofa, UniProt P00761); assay: porcine trypsin inhibitors, dose response, selectivity assay for Rce1 protease inhibitor project, biochemical, quenched peptide fluorescence, cherry-pick (AID 488789)
[8] = biological target: T1, CAAX prenyl protease 2 (Saccharomyces cerevisiae S288c, UniProt Q03530); assay type: biochemical
T1 sequence (Q03530 whole entry): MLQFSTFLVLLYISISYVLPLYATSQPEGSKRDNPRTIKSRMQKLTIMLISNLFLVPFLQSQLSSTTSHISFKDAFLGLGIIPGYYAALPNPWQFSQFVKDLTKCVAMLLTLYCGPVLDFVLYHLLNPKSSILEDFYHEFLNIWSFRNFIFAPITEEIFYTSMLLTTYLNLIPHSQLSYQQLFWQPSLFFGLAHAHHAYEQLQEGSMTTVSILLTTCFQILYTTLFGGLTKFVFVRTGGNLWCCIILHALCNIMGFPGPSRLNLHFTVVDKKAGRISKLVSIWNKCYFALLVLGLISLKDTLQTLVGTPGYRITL

[9] = system: Escherichia coli; assay: microbe, parasite or virus in culture
[10] = biological target: T2, Microphthalmia-associated transcription factor (Homo sapiens, UniProt O75030); assay: TRPM1 promoter luciferase signal decrease, dose response, MITF inhibitor project, cell-based, SK-MEL-5, cherry-picked, set 3 (AID 493073); assay type: functional
T2 sequence (O75030 whole entry): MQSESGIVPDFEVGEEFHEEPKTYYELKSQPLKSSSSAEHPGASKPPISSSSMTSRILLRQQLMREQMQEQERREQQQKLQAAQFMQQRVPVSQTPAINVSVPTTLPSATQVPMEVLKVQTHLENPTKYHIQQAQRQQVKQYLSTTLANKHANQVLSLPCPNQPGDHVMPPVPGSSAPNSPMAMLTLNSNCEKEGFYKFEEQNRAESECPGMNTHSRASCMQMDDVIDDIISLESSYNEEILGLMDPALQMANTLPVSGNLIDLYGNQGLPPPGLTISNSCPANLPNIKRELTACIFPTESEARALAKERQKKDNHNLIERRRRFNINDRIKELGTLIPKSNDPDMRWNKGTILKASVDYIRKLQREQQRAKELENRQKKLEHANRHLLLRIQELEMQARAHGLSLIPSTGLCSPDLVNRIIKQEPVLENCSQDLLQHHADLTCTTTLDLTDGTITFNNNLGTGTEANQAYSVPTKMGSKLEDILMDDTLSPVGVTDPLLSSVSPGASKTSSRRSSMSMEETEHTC

[11] = biological target: T3, Short transient receptor potential channel 4 (Mus musculus, UniProt Q9QUQ5); assay: mouse TRPC4 channel activators, dose response, cell-based, HEK293 TRPC4/mu-opioid, Fluo-4 calcium (AID 434937); assay type: functional
T3 sequence (Q9QUQ5 whole entry): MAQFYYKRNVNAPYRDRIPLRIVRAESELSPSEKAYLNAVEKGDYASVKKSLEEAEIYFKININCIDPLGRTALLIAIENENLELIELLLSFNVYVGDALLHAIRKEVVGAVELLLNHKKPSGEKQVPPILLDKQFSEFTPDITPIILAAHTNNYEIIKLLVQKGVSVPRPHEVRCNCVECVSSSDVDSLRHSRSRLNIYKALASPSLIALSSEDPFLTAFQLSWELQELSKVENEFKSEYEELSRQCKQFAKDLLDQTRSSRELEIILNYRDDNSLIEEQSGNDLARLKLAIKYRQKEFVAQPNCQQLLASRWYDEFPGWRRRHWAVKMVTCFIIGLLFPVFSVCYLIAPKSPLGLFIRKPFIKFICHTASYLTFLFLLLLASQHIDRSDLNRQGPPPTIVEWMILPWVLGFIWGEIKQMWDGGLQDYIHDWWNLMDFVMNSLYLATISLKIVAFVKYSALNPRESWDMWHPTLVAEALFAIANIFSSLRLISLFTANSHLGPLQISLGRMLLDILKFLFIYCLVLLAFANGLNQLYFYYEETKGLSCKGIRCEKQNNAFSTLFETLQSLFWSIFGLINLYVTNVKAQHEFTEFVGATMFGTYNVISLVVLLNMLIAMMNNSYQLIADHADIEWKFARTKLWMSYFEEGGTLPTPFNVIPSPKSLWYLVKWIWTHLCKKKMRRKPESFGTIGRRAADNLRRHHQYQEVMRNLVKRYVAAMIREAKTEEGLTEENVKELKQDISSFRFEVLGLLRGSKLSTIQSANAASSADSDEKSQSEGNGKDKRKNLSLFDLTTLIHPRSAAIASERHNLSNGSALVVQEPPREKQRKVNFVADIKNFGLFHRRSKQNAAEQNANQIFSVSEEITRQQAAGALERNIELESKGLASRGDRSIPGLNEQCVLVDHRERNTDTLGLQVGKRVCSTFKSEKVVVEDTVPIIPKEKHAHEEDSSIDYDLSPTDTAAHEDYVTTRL

[12] = system: A-375; assay: MITF: Counter assay: A375 proliferation Measured in Cell-Based System Using Plate Reader - 2084-03_Inhibitor_Dose_DryPowder_Activity. [Related pubchem assays (depositor defined):AID488944]; assay type: functional; settings: Homo sapiens
[13] = system: A-375; assay: A375 melanoma cell viability reduction, dose response, counter-screen for MITF modulator project, cherry-pick samples, set 2 (AID 540335); assay type: functional, cell-based; settings: Homo sapiens
[14] = NIH-3T3 fibroblast cytotoxicity, dose response, cytotoxicity control, cell-based, fluorescence, Alamar Blue, secondary assay (AID 2327); assay type: functional;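 note: NIH-3T3 mouse fibroblasts cultured with fluconazole at 8 µg/mL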
[15] = cells; assay type: functional, cell-based; settings: HEK-CNG
[16] = biological target: T4, Galanin receptor type 3 (Homo sapiens, UniProt O60755); assay: Fluorescence-based cell-based primary high throughput dose response assay to identify antagonists of the Galanin Receptor 3 (GalR3).; assay type: functional
T4 sequence (O60755 whole entry): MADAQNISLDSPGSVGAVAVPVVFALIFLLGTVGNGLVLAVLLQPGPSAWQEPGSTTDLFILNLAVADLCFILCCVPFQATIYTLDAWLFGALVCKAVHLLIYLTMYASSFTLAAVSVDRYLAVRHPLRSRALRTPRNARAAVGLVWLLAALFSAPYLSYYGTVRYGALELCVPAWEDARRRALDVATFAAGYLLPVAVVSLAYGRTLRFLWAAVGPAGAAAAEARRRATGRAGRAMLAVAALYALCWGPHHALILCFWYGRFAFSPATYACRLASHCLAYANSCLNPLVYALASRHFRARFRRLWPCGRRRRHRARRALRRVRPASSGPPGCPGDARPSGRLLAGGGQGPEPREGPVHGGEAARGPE

[17] = C. albicans growth with fluconazole, confirmation, fluorescence, retest (AID 2467); assay type: functional, cell-based
[18] = biological target: T5, Aminopeptidase N (Plasmodium falciparum FcB1/Columbia, UniProt O96935); assay: P. falciparum M1AAP inhibitors, biochemical, fluorogenic H-Leu-NHMec substrate, 1536-well (AID 1445); parameters: species or system Plasmodium falciparum 3D7, 3D7
T5 sequence (O96935 whole entry): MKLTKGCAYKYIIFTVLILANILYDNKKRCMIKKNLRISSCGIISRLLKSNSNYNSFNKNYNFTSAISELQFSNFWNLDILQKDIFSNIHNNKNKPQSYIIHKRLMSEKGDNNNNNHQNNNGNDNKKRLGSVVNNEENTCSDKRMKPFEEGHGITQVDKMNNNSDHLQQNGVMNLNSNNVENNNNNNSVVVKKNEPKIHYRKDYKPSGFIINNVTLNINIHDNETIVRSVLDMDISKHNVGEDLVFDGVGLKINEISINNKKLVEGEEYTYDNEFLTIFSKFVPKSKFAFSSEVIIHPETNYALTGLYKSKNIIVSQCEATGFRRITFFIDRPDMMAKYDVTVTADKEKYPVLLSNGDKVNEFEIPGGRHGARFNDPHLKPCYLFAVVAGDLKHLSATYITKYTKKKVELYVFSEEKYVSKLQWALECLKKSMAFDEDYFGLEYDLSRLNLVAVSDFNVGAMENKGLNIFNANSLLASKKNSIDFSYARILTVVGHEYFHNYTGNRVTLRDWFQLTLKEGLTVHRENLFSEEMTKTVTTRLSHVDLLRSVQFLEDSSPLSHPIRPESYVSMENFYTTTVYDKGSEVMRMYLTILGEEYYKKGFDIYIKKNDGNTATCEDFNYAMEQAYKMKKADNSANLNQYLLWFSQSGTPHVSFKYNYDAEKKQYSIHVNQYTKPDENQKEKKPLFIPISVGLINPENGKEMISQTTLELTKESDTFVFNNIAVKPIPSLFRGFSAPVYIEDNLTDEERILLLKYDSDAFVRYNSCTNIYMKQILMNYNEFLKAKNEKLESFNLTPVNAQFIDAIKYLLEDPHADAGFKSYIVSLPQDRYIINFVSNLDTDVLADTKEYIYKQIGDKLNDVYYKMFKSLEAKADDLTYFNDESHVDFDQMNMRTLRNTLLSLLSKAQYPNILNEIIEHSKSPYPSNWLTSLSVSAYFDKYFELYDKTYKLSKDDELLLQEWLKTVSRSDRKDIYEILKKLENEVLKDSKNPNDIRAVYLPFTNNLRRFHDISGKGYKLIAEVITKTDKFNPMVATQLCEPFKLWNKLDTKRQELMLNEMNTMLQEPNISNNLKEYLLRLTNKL

[19] = biological target: T6, CAAX prenyl protease 2 (Homo sapiens, UniProt Q9Y256); assay: human Rce1 protease inhibitors, dose response, biochemical, yeast membranes, quenched-peptide fluorescence, cherry-pick (AID 588849)
T6 sequence (Q9Y256 whole entry): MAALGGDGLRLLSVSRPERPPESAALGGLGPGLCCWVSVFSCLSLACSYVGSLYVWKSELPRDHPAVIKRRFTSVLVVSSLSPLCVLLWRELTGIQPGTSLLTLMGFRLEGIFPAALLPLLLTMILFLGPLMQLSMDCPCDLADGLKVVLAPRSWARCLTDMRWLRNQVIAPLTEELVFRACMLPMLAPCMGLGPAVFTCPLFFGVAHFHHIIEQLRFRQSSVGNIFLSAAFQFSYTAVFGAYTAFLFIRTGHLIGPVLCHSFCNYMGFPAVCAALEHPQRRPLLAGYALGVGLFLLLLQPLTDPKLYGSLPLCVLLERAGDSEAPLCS

5-hydroxytryptamine receptor 5A, sequence (P47898 whole entry): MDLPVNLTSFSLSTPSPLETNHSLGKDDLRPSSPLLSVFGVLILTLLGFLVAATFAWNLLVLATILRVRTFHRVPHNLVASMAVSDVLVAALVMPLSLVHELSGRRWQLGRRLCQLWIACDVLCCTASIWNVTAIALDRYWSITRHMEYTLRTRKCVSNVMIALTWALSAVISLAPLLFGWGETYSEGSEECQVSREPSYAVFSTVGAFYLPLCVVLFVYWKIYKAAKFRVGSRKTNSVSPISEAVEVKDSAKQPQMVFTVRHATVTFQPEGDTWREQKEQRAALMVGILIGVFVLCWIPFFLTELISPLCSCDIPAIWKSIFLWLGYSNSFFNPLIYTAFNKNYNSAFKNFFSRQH
Delta-type opioid receptor, sequence (P41143 whole entry): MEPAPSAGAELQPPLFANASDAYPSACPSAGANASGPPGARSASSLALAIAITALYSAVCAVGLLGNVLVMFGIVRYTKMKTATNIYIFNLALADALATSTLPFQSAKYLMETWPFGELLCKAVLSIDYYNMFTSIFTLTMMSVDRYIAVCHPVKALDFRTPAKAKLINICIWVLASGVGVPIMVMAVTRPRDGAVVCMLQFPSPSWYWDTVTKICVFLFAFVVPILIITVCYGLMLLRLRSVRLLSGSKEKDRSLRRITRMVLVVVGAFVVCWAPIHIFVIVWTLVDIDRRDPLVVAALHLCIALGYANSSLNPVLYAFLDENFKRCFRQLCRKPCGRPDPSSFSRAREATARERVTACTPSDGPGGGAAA
Mu-type opioid receptor, sequence (P35372 whole entry): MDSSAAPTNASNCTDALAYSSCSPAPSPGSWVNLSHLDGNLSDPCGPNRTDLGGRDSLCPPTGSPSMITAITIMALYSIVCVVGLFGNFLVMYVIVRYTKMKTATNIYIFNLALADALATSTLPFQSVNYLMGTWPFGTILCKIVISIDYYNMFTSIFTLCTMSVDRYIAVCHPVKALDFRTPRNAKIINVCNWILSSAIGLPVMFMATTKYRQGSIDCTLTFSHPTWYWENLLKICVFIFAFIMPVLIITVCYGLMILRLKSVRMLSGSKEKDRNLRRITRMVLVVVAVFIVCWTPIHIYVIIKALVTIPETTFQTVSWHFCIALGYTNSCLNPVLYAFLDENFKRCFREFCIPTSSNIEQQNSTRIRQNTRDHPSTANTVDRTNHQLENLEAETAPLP
Trypsin, sequence (P00761 whole entry): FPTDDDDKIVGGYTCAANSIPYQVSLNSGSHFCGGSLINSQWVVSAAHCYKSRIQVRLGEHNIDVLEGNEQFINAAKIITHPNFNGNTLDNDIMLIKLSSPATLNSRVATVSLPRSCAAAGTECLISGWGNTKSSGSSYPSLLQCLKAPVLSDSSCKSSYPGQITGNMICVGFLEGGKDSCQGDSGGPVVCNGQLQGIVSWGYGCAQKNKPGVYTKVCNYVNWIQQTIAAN

With Cn1cc(CNCc2ccc(OC(F)(F)F)cc2)c(-c2ccc3c(c2)OCCO3)n1 the IC50 [1] was 0.272 µM (active), the IC50 [2] was < 0.25 µM (active) and the AC50 [3] was 1.04 µM (active).

For CCOC(=O)C1(Cc2ccccc2)CCN(Cc2cccn2-c2nccs2)CC1, the EC50 [4] was > 92.5 µM (inactive), the EC50 [5] was > 92.5 µM (inactive) and the EC50 [6] was > 92.5 µM (inactive).

With CC1(c2ccncc2)Nc2ccccc2-c2nc3ccccc3n21 (stereo not given) the AC50 [7] was 9.63 µM (active) and the AC50 [8] was 68 µM (active).

With CC(C)(C)c1ccc(C(=O)O)c(C(=O)c2ccc(C(=O)O)cc2)c1 the AC50 [9] was 49.3 µM (active).

In the case of CN(C)CCCN(C(=O)c1ccc(Cl)s1)c1nc2cc3c(cc2s1)OCO3, the AC50 [10] was 22.9 µM (active), the EC50 [11] was 5.96 µM (active) and the AC50 [12] was > 11 µM (active). The AC50 [13] was > 11 µM (active).

With CC(C)(C)c1ccc(-c2c[n+](-c3ccc(Br)cc3)c3n2CCCS3)cc1 the AC50 [10] was 3.2 µM (active), the EC50 [14] was > 160 µM (inactive) and the EC50 [15] was > 29.9 µM (inactive). For the same compound, the IC50 [16] was 10.1 µM (inactive), the EC50 [17] was 0.199 µM (active) and the AC50 [13] was 34.1 µM (active).

For CCOC(=O)c1c(NC(=O)CSc2ccccc2C(=O)O)sc(C)c1C, the IC50 [18] was 52.3 µM (active).

For COc1ccc(-c2nc3n(c2C)Cc2ccccc2-3)cc1, the AC50 [12] was 30.1 µM (active).

With Cc1nn(Cc2ccccc2)c(C)c1C(=O)NCc1ccccc1 the AC50 [9] was 42.7 µM (active).

For CC(=O)NC(CC(=O)NCC(c1ccco1)N(C)C)c1ccccc1 (stereo not given), the EC50 [11] was 0.0533 µM (active), the EC50 [4] was 31 µM (inactive) and the EC50 [5] was > 92.5 µM (inactive). For the same compound, the EC50 [6] was > 92.5 µM (inactive).

In the case of O=C(Nc1ccccc1)c1ccc(NC2CCCCC2)c(S(=O)(=O)N2CCOCC2)c1, the EC50 [4] was > 92.5 µM (inactive), the EC50 [5] was > 92.5 µM (inactive) and the EC50 [6] was > 92.5 µM (inactive).

For COc1ccc(/C=N/NC(=O)c2[nH]c3ccc(Br)cc3c2-c2ccccc2)c(C(=O)O)c1OC, the IC50 [18] was 65.3 µM (active).

With CN(C)c1ccc(/C=N/NC(=O)CNC(=O)c2ccco2)cc1 the AC50 [19] was 5.17 µM (active) and the AC50 [8] was 7.99 µM (active).

For CN(c1ccccc1)c1ccc(/C=N/NC(=O)CC#N)cc1, the AC50 [19] was 2.64 µM (active), the AC50 [7] was 5.99 µM (active) and the AC50 [8] was 6.98 µM (active).
